Assay results taken from article PMC10253817, “Design, Pharmacological Characterization, and Molecular Docking of Minimalist Peptidomimetic Antagonists of α4β1 Integrin” (International Journal of Molecular Sciences, 2023).
*1 amine or outer side, *2 acyl side, *3 side chain or, on linkers, in order; H or OH if unused. Where a SMILES comes first, the peptide text is derived from it. [ ]: non-standard residue; d: D form. The star is where a group is joined. X1 = O=C(Cc1ccc(N[*:1])cc1)[*:2]; NH(2-Me-phenyl) = Cc1ccccc1N*; CO = O=C([*:1])[*:2]

Columns and labels:
[1] = biological target: T1, α4β1 integrin (Homo sapiens, UniProt P05556+P13612); assay: HUTS-21 monoclonal antibody binding (α4β1 integrin conformation), flow cytometry; type: cell-based; conditions: Jurkat E6.1 cells; compounds 1–100 nM; FN 10 µg/mL; versus vehicle
T1 construct: Jurkat E6.1 cell line, which endogenously expresses α4β1 integrin; host or cells: Jurkat E6.1
T1 sequence (P13612 34-1032): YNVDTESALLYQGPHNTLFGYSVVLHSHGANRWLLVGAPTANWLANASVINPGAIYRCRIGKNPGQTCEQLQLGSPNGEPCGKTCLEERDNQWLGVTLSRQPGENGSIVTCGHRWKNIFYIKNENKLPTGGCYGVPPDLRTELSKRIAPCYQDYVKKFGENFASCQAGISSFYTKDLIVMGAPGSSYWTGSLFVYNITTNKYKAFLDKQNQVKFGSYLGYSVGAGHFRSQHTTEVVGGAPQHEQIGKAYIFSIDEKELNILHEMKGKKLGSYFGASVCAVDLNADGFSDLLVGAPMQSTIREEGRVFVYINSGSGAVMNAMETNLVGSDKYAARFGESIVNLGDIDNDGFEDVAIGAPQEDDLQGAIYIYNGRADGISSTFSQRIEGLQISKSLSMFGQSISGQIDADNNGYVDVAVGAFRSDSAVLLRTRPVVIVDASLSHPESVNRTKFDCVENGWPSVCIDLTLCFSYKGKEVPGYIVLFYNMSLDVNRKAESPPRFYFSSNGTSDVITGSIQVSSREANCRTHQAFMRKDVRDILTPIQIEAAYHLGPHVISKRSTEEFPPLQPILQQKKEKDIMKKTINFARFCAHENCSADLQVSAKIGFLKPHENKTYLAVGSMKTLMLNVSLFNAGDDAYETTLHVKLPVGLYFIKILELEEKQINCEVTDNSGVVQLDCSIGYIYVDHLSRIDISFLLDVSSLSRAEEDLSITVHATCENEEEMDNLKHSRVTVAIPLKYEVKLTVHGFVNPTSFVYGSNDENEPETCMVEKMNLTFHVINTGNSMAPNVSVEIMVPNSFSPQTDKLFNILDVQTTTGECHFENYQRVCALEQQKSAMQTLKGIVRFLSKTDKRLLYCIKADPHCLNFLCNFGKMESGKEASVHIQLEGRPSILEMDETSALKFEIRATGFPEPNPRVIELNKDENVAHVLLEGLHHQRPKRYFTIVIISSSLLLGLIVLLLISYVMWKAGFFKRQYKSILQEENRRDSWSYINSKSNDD
T1 sequence (P05556 21-798): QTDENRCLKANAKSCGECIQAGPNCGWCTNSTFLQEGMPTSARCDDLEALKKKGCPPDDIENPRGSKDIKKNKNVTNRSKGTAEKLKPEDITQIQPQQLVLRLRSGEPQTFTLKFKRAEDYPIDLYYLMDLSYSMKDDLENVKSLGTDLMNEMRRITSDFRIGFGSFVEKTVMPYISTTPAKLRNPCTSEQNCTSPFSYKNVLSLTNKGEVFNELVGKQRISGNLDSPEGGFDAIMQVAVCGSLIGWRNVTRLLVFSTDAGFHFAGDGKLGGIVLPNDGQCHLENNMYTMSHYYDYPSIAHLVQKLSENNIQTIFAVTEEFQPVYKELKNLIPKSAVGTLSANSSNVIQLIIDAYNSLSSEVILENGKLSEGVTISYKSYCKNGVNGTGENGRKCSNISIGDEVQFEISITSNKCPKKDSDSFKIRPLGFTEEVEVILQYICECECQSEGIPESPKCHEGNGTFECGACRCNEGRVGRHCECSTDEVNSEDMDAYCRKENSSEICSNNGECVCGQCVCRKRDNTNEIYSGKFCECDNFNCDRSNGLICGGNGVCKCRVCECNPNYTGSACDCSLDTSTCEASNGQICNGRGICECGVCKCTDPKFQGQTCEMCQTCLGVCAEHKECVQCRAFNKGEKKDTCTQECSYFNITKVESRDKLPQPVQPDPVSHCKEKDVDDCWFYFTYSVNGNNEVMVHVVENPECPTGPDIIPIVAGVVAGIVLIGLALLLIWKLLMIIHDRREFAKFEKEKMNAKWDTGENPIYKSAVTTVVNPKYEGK
Source text: Integrin functions are regulated by a number of conformational changes in the protein itself. […] Conformational changes can be evaluated by using conformationally sensitive antibodies which specifically recognize epitopes exposed only in a defined structural conformation. To better depict peptidomimetics–α4β1 integrin interactions, we employed PE-conjugated HUTS-21 mAb that recognizes an epitope mapped to the hybrid domain of the β1 subunit.
Conversely, antagonists 3, 8, and 13, although binding to α4β1 integrin as previously shown, were not able to induce any conformational rearrangement, showing very low binding of HUTS-21 mAb.
Flow cytometry analysis was performed as previously described, with the following modifications. Jurkat E6.1 cells were resuspended in 1% BSA in HBSS (50,000 cells/sample); then, FN (10 μg/mL) and two concentrations of the best peptidomimetics (100–1 nM) were added to the cells for 30 min. Thereafter, phycoerythrin (PE)-conjugated, conformational-sensitive HUTS-21 mAb (PE mouse anti-human CD29 antibody, Becton Dickinson Italia, Milan, Italy) (20 μL/sample) was added for 45 min at room temperature; after two washes, Jurkat E6.1 cells were suspended in PBS, and 10,000 cells/sample were acquired in a Guava®EasyCyte Flow Cytometer. The data are presented as the mean fluorescence intensity (MFI). Data were normalized with the relative fluorescence for nonspecific binding evaluated by exposing the cells to an isotype control mAb set to 0.

[2] = biological target: T1, α4β1 integrin; assay: α4β1 integrin-mediated Jurkat E6.1 cell adhesion to FN; type: cell-based; conditions: Jurkat E6.1 cell adhesion to FN (10 μg/mL); antag. = reduced cell adhesion; mean ± SD
Method: To investigate the ability of the new peptides to modulate integrin-mediated cell adhesion, we employed cell adhesion assays using a Jurkat E6.1 cell line, which endogenously expresses α4β1 integrin and the natural ligand FN. […] On the contrary, ligands able to increase cell adhesion are defined as agonists.
(§1) The assays were performed as previously described. Briefly, regarding adhesion assays on Jurkat E6.1 or HL-60 cells, black 96-well plates (Corning Costar) were coated overnight at 4 °C with FN or Fg (10 μg/mL) or VCAM-1 (2 μg/mL) in order to investigate α4β1 integrin-mediated cell adhesion. To avoid any kind of unspecific binding, plates were incubated with 100 μL/well of blocking solution (1% BSA in HBSS) for 30 min at 37 °C. Cells were counted, stained with the CellTracker green CMFDA (12.5 μM, 30 min at 37 °C, Life Technologies Italia, Milan, Italy) and after three washes, were preincubated with increasing concentrations of new compounds (10^−10–10^−4 M) or with the vehicle (methanol) for 30 min at 37 °C.
(§2) Then, cells were plated (500,000/well) on coated wells and incubated for 30 min at 37 °C. Afterwards nonadherent cells were removed via washing with a blocking solution, and the remaining adhered cells were lysed with 0.5% Triton X-100 in PBS (30 min at 4 °C). Green fluorescence was measured (Ex485 nm/Em535 nm) using an EnSpire Multimode Plate Reader (PerkinElmer, Waltham, MA, USA).
(§3) In both types of adhesion assay, the number of adherent cells was determined via comparison with a standard curve made in the same plate. Experiments were carried out in quadruplicate and repeated at least three times. Data analysis and EC50 or IC50 values were calculated using GraphPad Prism 9.5.1 (GraphPad Software, San Diego, CA, USA).

[3] = biological target: T1, α4β1 integrin; assay: LDV-FITC competitive binding on intact Jurkat E6.1 cells
Method: The assays were performed as previously described with the following modifications. Jurkat E6.1 cells were resuspended (50,000 cells/sample) in 0.1% BSA in a HEPES buffer (NaCl 110 mM; KCl 10 mM; Glucose 10 mM; MgCl2 1 mM; CaCl2 1.5 mM; HEPES 30 mM; pH 7.4) and pre-incubated with different concentrations (10^−11–10^−5 M) of compounds for 20–30 min at RT. Then, LDV-FITC (5 µM) was added to the cells, and they were incubated in the dark for an additional 30 min at RT. At the end of the incubation with LDV-FITC, cells were washed with 0.1% BSA in a HEPES buffer. The FITC fluorescence intensity was measured using an EnSpire Multimode Plate Reader (PerkinElmer, Waltham, MA, USA). The data were plotted as LDV-FITC specific bindings versus the concentration of the competitor, and the data were fitted to a one-site competition equation; the equilibrium dissociation constant Ki was calculated from the IC50 using the Cheng–Prusoff equation.

[4] = biological target: T1, α4β1 integrin; assay: α4β1 integrin-mediated Jurkat cell adhesion to VCAM-1; type: cell-based; conditions: Jurkat cell adhesion to VCAM-1 (2 μg/mL); antag. = reduced cell adhesion; mean ± SD
Method: (§4) To this purpose, the ability of the best peptidomimetics to modulate cell adhesion mediated by integrins other than α4β1 was evaluated in HL60 cells, mainly expressing the leukocyte integrin αMβ2, and on K562 cells, mainly expressing α5β1, which shares a β1 subunit with the heterodimer α4β1. […] In contrast, 13 was a moderate promoter of cell adhesion mediated by αMβ2 integrin, behaving as an agonist. Regarding α5β1 integrin, none of the peptidomimetics employed were able to modulate K562 cell adhesion, thus being shown to be completely ineffective toward α5β1 integrin. The reference compound DS-70 was ineffective toward both αMβ2 and α5β1 integrins under the same experimental conditions (Table 3).
as §1, §2, §3

[5] = biological target: T2, αMβ2 integrin (Homo sapiens, UniProt P05107+P11215); assay: αMβ2 integrin-mediated HL60 cell adhesion to Fg; type: cell-based; conditions: HL60 cell adhesion to Fg (10 μg/mL); antagonists; mean ± SD
T2 construct: HL60 cells, mainly expressing the leukocyte integrin αMβ2; host or cells: HL60 (PMA-treated)
T2 sequence (P05107 23-769, other chains not shown): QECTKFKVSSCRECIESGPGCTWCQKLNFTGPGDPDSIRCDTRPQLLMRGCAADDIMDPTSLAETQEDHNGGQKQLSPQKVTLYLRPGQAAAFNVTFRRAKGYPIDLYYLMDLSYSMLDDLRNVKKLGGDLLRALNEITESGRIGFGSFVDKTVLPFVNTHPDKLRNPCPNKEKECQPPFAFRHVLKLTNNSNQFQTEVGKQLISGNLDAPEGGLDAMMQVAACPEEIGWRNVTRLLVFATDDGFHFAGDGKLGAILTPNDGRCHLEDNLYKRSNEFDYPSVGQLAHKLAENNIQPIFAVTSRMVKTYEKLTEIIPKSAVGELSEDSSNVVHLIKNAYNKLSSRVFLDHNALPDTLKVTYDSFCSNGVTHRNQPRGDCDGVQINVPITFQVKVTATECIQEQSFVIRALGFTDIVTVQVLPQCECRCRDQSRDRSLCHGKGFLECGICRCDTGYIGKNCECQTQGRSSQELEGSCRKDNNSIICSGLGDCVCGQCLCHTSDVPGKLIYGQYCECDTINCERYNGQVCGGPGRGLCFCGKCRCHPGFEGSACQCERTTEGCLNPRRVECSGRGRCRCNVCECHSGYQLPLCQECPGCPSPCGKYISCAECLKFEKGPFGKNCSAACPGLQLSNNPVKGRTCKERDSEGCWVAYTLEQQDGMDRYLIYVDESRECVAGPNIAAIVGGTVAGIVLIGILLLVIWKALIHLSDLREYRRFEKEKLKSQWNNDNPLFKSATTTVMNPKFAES
Method: as §4, §1, §2, §3
Cell culture. Jurkat E6.1 (expressing both α4β1 and αLβ2 integrin), K562 (expressing α5β1 integrin) and HL60 (expressing α Mβ2 integrin) cell lines were purchased from ATCC (Rockville, MD, USA); these cells were routinely cultured in RPMI-1640 (Life Technologies) supplemented with 1% glutamine and 10% fetal bovine serum (FBS). Cells were grown at 37 °C under 5% CO 2 humidified atmosphere. […]

[6] = biological target: T3, α5β1 integrin (Homo sapiens, UniProt P05556+P08648); assay: α5β1 integrin-mediated K562 cell adhesion to FN; type: cell-based; conditions: K562 cell adhesion to FN (10 μg/mL)
T3 construct: K562 cells, mainly expressing α5β1, which shares a β1 subunit with the heterodimer α4β1; host or cells: K562 (PMA-treated)
T3 sequence (P08648 42-894 limits assumed): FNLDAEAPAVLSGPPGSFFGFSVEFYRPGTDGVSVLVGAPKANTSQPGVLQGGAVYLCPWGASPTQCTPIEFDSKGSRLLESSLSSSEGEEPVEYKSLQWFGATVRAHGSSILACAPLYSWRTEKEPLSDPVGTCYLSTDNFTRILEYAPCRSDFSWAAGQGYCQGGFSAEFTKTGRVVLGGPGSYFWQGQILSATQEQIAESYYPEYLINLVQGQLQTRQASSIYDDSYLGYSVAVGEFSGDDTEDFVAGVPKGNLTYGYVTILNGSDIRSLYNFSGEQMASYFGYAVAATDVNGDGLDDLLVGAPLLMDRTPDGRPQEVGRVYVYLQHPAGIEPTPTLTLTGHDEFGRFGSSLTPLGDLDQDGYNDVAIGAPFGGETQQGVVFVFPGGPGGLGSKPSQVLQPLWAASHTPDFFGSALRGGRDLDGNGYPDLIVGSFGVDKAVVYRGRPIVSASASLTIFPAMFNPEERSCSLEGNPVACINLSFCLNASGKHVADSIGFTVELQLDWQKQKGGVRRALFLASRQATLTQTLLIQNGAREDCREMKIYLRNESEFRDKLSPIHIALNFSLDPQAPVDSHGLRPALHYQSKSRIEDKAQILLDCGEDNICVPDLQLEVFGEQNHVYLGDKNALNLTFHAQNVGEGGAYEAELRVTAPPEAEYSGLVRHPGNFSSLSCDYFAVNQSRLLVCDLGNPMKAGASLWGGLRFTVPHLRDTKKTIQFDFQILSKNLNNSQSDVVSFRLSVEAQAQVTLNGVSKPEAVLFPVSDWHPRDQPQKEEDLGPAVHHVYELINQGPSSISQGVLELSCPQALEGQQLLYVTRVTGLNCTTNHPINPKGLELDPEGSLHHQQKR
T3 sequence (P08648 895-1049 partner limits assumed): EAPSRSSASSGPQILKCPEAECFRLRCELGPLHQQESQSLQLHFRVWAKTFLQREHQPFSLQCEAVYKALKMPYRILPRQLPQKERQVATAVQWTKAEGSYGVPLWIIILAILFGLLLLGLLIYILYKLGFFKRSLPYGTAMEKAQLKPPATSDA
T3 sequence (P05556 21-798): as the sequence (P05556 21-798) above
Method: as §4
For adhesion assays mediated by α5β1 integrin, K562 cells were pre-treated with PMA (64.85 nM, Merck Life Science, Milan, Italy) for 48 h to enhance α5β1 integrin expression. 96-well plates were coated via passive adsorption with FN (10 μg/mL) overnight at 4 °C; then, the following day, plates were blocked by adding 100 μL/well of a blocking solution (1% BSA in PBS) and incubated for 1 h at 37 °C. K562 cells were counted and preincubated with various concentrations (10^−10–10^−4 M) of the peptides or with the vehicle for 30 min at RT. Then, K562 cells were plated (50,000 cells/well) and incubated at RT for 1 h. The wells were then washed three times with 1% BSA in PBS, and 50 μL of hexosaminidase substrate was added and incubated at RT for 1 h. After the addition of 100 μL of stopping solution (50 mM glycine and 5 mM EDTA, pH 10.4), plates were read at 405 nm in an EnSpire Multimode Plate Reader.
as §3
Cell culture. Jurkat E6.1 (expressing both α4β1 and αLβ2 integrin), K562 (expressing α5β1 integrin) and HL60 (expressing α Mβ2 integrin) cell lines were purchased from ATCC (Rockville, MD, USA); these cells were routinely cultured in RPMI-1640 (Life Technologies) supplemented with 1% glutamine and 10% fetal bovine serum (FBS). Cells were grown at 37 °C under 5% CO 2 humidified atmosphere. 40 h before the adhesion assays, K562 and HL60 cells were treated with 25 nM or 40 nM phorbol 12 -myristate 13-acetate (PMA; Sigma-Aldrich), respectively, to induced cell differentiation and to increased α5β1 or αMβ2 integrin expression on cell surface (Baiula et al., 2016).
Cell adhesion assays . Concentration-response curves, obtained from cell adhesion assays performed in […]
Figure S1. […]

[7] = design: method as in PMID 30051467, PMID 33584300; conditions: cited from earlier work
[8] = design: method as in PMID 17523052, PMID 11682211; conditions: plasma; heparinized blood; homogenates of rat liver, lungs, and intestines; cited from earlier work
[9] = design: method as in PMID 12086484; conditions: cited from earlier work
[10] = test system: antigen-induced airway hyper-responsiveness; design: method as in PMID 10934094; conditions: allergic sheep; cited from earlier work

In the case of fibronectin [FN], the “binding of HUTS-21 mAb (MFI)” value [1] is reported as “increased binding of the HUTS-21 mAb”.

CCCNC(=O)[C@@H](CC(=O)NCc1ccc(NC(=O)Nc2ccccc2C)cc1)NC(=O)CC(=O)O [compound 16] gave an IC50 [2] greater than 5 µM.

Compound CC(=O)N[C@@H](CNC(=O)CC(=O)O)C(=O)NCc1ccc(NC(=O)Nc2ccccc2C)cc1 [compound 11] has an IC50 [2] greater than 5 µM.

In the case of Cc1ccccc1NC(=O)Nc1ccc(CNC(=O)C[C@H](C)NC(=O)CC(=O)O)cc1 [compound 14], the IC50 [2] is reported as greater than 5 µM.

In the case of CCCNC(=O)[C@H](CC(=O)NCc1ccc(NC(=O)Nc2ccccc2C)cc1)NC(=O)CC(=O)O [compound 15], the IC50 [2] is reported as greater than 5 µM.

For Cc1ccccc1NC(=O)Nc1ccc(CC(=O)NC[C@H](C)C(=O)NCC(=O)O)cc1 [compound 1], the “receptor affinity (in words)” value ([3]; α4β1 integrin) was “complete lack of receptor affinity”.

Work on Cc1ccccc1NC(=O)Nc1ccc(CNC(=O)[C@H](C)CNC(=O)CC(=O)O)cc1 [compound 9] yielded an IC50 [2] greater than 5 µM.

In the case of Cc1ccccc1NC(=O)Nc1ccc(CC(=O)N2CC[C@H](C(=O)NCC(=O)O)C2)cc1 [DS-70, MPUPA-β^2Pro-Gly, reference compound], the IC50 [2] is reported as 0.0043 µM, the IC50 [4] is reported as 0.00504 µM and the IC50 [5] is reported as greater than 5 µM. The IC50 [6] was greater than 5 µM, the Ki ([3]; intact Jurkat E6.1 cells vs. LDV-FITC, mean ± SD) was 0.00094 ± 0.00032 µM and the “stability in mouse serum” value [7] was “noteworthy stability”.

CC(=O)N[C@H](CNC(=O)CC(=O)O)C(=O)NCc1ccc(NC(=O)Nc2ccccc2C)cc1 [compound 12] gave an IC50 [2] greater than 5 µM.

For Cc1ccccc1NC(=O)Nc1ccc(CC(=O)N[C@@H](CC(C)C)C(=O)N[C@@H](CC(=O)O)C(=O)N[C@H](C(=O)N2CCC[C@H]2C(=O)O)C(C)C)cc1 [BIO1211, MPUPA-Leu-Asp-Val-ProOH] ({NH(2-Me-phenyl)-CO}-[X1]LDVP-OH), the “stability in a biological environment” value [8] is listed as “scarcely stable”, the clearance in vivo [9] is listed as “rapid clearance” and the antigen-induced airway hyper-responsiveness [10] is listed as “capable of inhibiting”.

Compound Cc1ccccc1NC(=O)Nc1ccc(CNC(=O)[C@H]2CCN(C(=O)CC(=O)O)C2)cc1 [DS-23, reference compound] has an IC50 [2] of 0.051 µM.

In the case of Cc1ccccc1NC(=O)Nc1ccc(CNC(=O)[C@@H](C)CNC(=O)CC(=O)O)cc1 [compound 10], the IC50 [2] is reported as greater than 5 µM.
